Data on 1 compound can be found in patent US12611470B2, “Chromatin-opening element for stable long term gene expression” (CZ Biohub SF, LLC, priority 2019, dated 2026).

This experiment has as its system Transduced P19 cells. Put plainly: Epigenetic effector experiments: rescue of GFP expression in silenced transduced cells. The experiment is classed as cell-based, mouse. The procedure: GFP expression is rescued by treatment with DNA methylation inhibitor 5-aza-cytidine (5-aza) in day 18 UCOE-RSV cells from the lentiviral silencing experiment. Cells were replica plated at day 16, specified concentrations of 5-aza were introduced 24 hours later (with exception of control), and cells were passaged and assayed via flow cytometry 24 hours after chemical introduction for % GFP+ cells. Data is reported as mean±SD from three biological replicates.
GFP expression is rescued by treatment with HDAC inhibitor trichostatin A (TSA) in day 24 UCOE-RSV cells from the lentiviral silencing experiment. Cells were replica plated at day 22, specified concentrations of TSA were introduced 24 hours later (with exception of control), and cells were passaged and assayed via flow cytometry 24 hours after chemical introduction for % GFP+ cells. Data is reported as mean f SD from three biological replicates.
Cells were replica plated at day 16, specified concentrations of 5-aza were introduced 24 hours later (with exception of control), and cells were passaged and assayed via flow cytometry 24 hours after chemical introduction for % GFP+ cells. Data is reported as mean±SD from three biological replicates. In the graph, data is shown from left to right for each construct: no treatment, 2 μM 5-aza, 10 μM 5-aza. […] Cells were replica plated at day 22, specified concentrations of TSA were introduced 24 hours later (with exception of control), and cells were passaged and assayed via flow cytometry 24 hours after chemical introduction for % GFP+ cells. Data is reported as mean f SD from three biological replicates. In the graph, data is shown from left to right for each construct: no treatment, 0.05 μM TSA, 0.1 μM TSA. […] Cells were replica plated at day 19, treated with 0.1 μM TSA or 10 μM 5-aza (with exception of control) 24 hours later, and cells were passaged and assayed via flow cytometry 24 hours after chemical introduction for % GFP+ cells. Data is reported as mean f SD from three biological replicates. In the graphs for FIG. 6C and FIG. 6D, the data is shown from left to right for each construct: no treatment, 0.1 μM TSA, 10 μM 5-aza.
Replica-plated cell populations were treated with varying concentrations of 5-aza-2′-deoxycytidine (Sigma-Aldrich, A3656) or Trichostatin A (Sigma-Aldrich, T1952) 24 hours after passaging. TSA was purchased as a readymade 5 mM solution in DMSO, which was then diluted to a 0.05 μM or 0.1 μM concentration in P19 growth media. 5 mg of 5-aza-2′-deoxycytidine was dissolved in 1 mL of 1:1 acetic acid: water to make a 21.9 mM stock solution, which was then diluted in P19 growth media to 2 μM or 10 μM. Cells were assayed through flow cytometry after 24 hours. […]

With `CC(/C=C/C(=O)NO)=C\[C@@H](C)C(=O)c1ccc(N(C)C)cc1` [TSA, trichostatin A], the “reactivation of GFP expression” value (all examined populations, range of concentrations) was “dose-dependent recovery of GFP expression”. Besides, the silenced cells rescued entry (highest dose of TSA, RSV promoter-only construct, day 24 cells, 24 h treatment) is “about 25%”.
